Measurements: US20080146641A1, “ANTIBACTERIAL COMPOSITION” (priority 2001, published 2008)
Values after ≈ are worked out from the molar mass of the structure shown. Read-outs that look alike come from different tables or passages of the source.

Tests used:
[1] = Antibacterial effect, test not described
[2] = system: Escherichia coli IFO 3301; test: Minimum inhibitory concentration, agar plate for measuring susceptibility; assay type: cell-based; details: for MIC: Escherichia coli, IFO3301, read-out: Minimum Inhibitory Concentration CaO, Escherichia coli IFO 3301 (Gram-negative bacteria)
[3] = system: Staphylococcus aureus IFO 12732; test: as above; assay type: cell-based; details: for MIC: Staphylococcus aureus, IFO12732, read-out: Minimum Inhibitory Concentration CaO, Staphylococcus aureus IFO 12732 (Gram-positive bacteria)
[4] = system: Salmonella entriditis IFO 3313; test: Antibacterial spectrum, MIC on Muller Hinton Agar; assay type: cell-based, Salmonella enteritidis; details: Comparison 1 is a reference value (suspension at not less than 1400 μg)
[5] = system: Pseudomonas aeruginosa IFO 13275; test: Antibacterial spectrum, MIC on Muller Hinton Agar; assay type: cell-based; details: Comparison 1 is a reference value (suspension at not less than 1400 μg)
[6] = system: Enterococcus faecalis IFO 129B4; test: Antibacterial spectrum, MIC on Muller Hinton Agar; assay type: cell-based; details: Comparison 1 is a reference value (suspension at not less than 1400 μg)
[7] = system: Bacillus cereus IFO 13494; test: Antibacterial spectrum, MIC on Muller Hinton Agar; assay type: cell-based; details: Comparison 1 is a reference value (suspension at not less than 1400 μg)
[8] = system: Lactobacillus plantarum (lactic acid bacterium) IFO 3070; test: Antibacterial spectrum, MIC on Brain Heart Infusion Agar; assay type: cell-based; details: Comparison 1 is a reference value
[9] = system: Clostridium perfingens NCTC 8283; assay type: cell-based, Clostridium perfringens; details: Comparison 1 is a reference value (suspension at not less than 1400 μg)
[10] = system: Saccharomyces cerevisiae IFO 1950; test: Antibacterial spectrum, MIC on Sabouraud Glucose agar medium; assay type: cell-based; details: Comparison 1 is a reference value
Procedure: […] Additionally, as to the other α-amino acids used as the raw materials, flat plates for measuring susceptibility each of which contains a 500 to 20,000 μg/ml α-amino acid were prepared. […] The bacterial liquid for inoculation was drawn In lines and painted 1 to 2 cm on each flat plate for measuring susceptibility with a plastic loop, and incubated at 35° C. 1° C. for 18 to 20 hours. The lowest concentrations in which the painted parts were blocked to grow were defined as the minimum bacteriostasis concentrations of the antibacterial compositions, and the calcium oxide, the calcium hydroxide, and the α-amino acids used as the raw materials in the embodiments 1 through 16.
The minimum inhibitory concentrations to these typical kinds of bacteria were measured, however, the antibacterial compositions of the present invention are not to be restricted to the kinds of bacteria shown in the embodiments. Although the measuring method was similar to that of the embodiment 17, as the culture media for measuring susceptibility, Muller Hinton Agar (Difco) was used for enterococcus, cereus, salmonella, and pseudomonas aeruginosa; Brain Heart Infusion Agar (Difco) was used for lactobacillus; GAM agar medium (Nissui Pharmaceutical Co., Ltd.) was used for welsh; and Sabouraud Glucoss agar medium (Eiken Chemical Co., Ltd.) was used for saccharomyces.

[11] = cited from earlier work
[12] = Table 2, raw materials, amino acid plates held 500 to 20,000 μg/ml α-amino acid

| SMILES | MIC [2, 12] | MIC [3, 12] | further results |
| --- | --- | --- | --- |
| N[C@@H](CCC(=O)[O-])C(=O)[O-].[Ca+2] [calcium glutamate] |  |  | antibacterial effect / antibacterial property [1]: did not have antibacterial property |
| C[C@H](N)C(=O)O [Comparison 4, alanine] | > 10000 µg/mL | > 10000 µg/mL |  |
| N[C@@H](CSSC[C@H](N)C(=O)O)C(=O)O [Comparison 9, cystine] | > 20000 µg/mL | 20000 µg/mL (≈ 83.2 mM) |  |
| N[C@@H](CC(=O)[O-])C(=O)[O-].[Ca+2] [aspartate calcium] |  |  | antibacterial effect / antibacterial property [1]: did not have antibacterial property |
| NC(=O)C[C@H](N)C(=O)O [Comparison 11, asparagine] | > 20000 µg/mL | > 20000 µg/mL |  |
| NCC(=O)O [Comparison 3, glycine] | > 10000 µg/mL | > 10000 µg/mL |  |
| C[C@@H](O)[C@H](N)C(=O)O [Comparison 8, threonine] | > 20000 µg/mL | > 20000 µg/mL |  |
| CSCC[C@H](N)C(=O)O [Comparison 10, Methionine] | > 10000 µg/mL | > 10000 µg/mL |  |
| CC(C)[C@H](N)C(=O)O [Comparison 5, valine] | > 10000 µg/mL | > 10000 µg/mL |  |
| CC[C@H](C)[C@H](N)C(=O)O [Comparison 7, isoleucine] | > 10000 µg/mL | > 10000 µg/mL |  |
| CC(C)C[C@H](N)C(=O)O [Comparison 6, leucine] | > 10000 µg/mL | > 10000 µg/mL |  |
| NC(=O)CC[C@H](N)C(=O)O [Comparison 12, glutamine] | > 20000 µg/mL | > 20000 µg/mL |  |
| [O]=[Ca] [Comparison 1, calcium oxide] |  |  | Minimum Inhibitory Concentration CaO; Escherichia coli IFO 3301 (Gram-negative bacteria) [2, 12]: 1250 µg/mL; Minimum Inhibitory Concentration CaO; Staphylococcus aureus IFO 12732 (Gram-positive bacteria) [3, 12]: 1000 µg/mL; Minimum Inhibitory Concentration CaO, Salmonella enteritidis [4]: 2500 µg/mL; Minimum Inhibitory Concentration CaO, Pseudomonas aeruginosa [5]: 2500 µg/mL; Minimum Inhibitory Concentration CaO, Enterococcus faecalis [6]: 5000 µg/mL; Minimum Inhibitory Concentration CaO, Bacilluscereus [7]: 2500 µg/mL; Minimum Inhibitory Concentration CaO, Lactobachillus faecalis [8]: 313 µg/mL; Minimum Inhibitory Concentration CaO, Clostridium perfringens [9]: 5000 µg/mL; Minimum Inhibitory Concentration CaO, Saccgaromyces cervisiae [10]: 625 µg/mL; dissolves in water ([11]; 20° C.): 0.14 wt %; water-solubility ([11]; at 20° C.): 1400 μg/gH2O |
| N[C@@H](Cc1c[nH]cn1)C(=O)O [Comparison 14, hystidine] |  |  | Minimum Inhibitory Concentration CaO; Escherichia coli IFO 3301 (Gram-negative bacteria) [2, 12]: >20000 µg/mL; Minimum Inhibitory Concentration CaO; Staphylococcus aureus IFO 12732 (Gram-positive bacteria) [3, 12]: >20000 µg/mL |
| [Ca+2].[OH-].[OH-] [Comparison 2, calcium hydroxide] |  |  | Minimum Inhibitory Concentration CaO; Escherichia coli IFO 3301 (Gram-negative bacteria) [2]: 900 µg/mL; Minimum Inhibitory Concentration CaO; Staphylococcus aureus IFO 12732 (Gram-positive bacteria) [3]: 850 µg/mL |
